# Assay results as given in patent US20240190889A1, “NEW CYCLOPENTA-THIENO-DIAZEPINE DERIVATIVES AS GABA A GAMMA1 POSITIVE ALLOSTERIC MODULATORS” (Hoffmann-La Roche Inc., priority 2021, published 2024).
# Like-named read-outs stand apart in the source and are kept apart here.
# What was measured:
# [1] = target: human GABAA α5β2γ1 receptor (Homo sapiens (Human), UniProt P31644+Q8N1C3); test: Radioligand binding assay, competition for [3H]RO7239181, γ1-containing GABAA subtypes; details: membranes from HEK293F cells, mean of two determinations
# Description: (§1) Membrane Preparation and Binding Assay for γ1-containing GABAA Subtypes
# The affinity of compounds at GABAA γ1 subunit-containing receptors was measured by competition for [^3H]RO7239181 (67.3 Ci/mmol: Roche) binding to membranes from HEK293F cells (ThermoFisher R79007) expressing human (transiently transfected) receptors of composition α5β2γ1, α2β2γ1, α1β2γ1. For better protein expression of the α2 subunit-containing receptors, the 28 amino acid long signal peptide (Metl to Ala28) of the human GABAA α2 subunit was substituted by the 31 amino acid long signal peptide (Met1 to Ser31) of human GABAA α5 subunit.
# (§2) Harvested pellets from HEK293F cells expressing the different GABAA receptor subtypes were resuspended in Mannitol Buffer pH 7.2-7.4 (Mannitol 0.29 M, Tricthylamine 10 mM. Acetic acid 10 mM. EDTA 1 mM plus protease inhibitors (20 tablets Complete. Roche Diagnostics Cat. No. 05 056 489 001 per liter)), washed two times and then resuspended at 1:10 to 1:15 dilution in the same buffer. Cell disruption was performed by stirring the suspension in a Parr vessel #4637 at 435 psi for 15 minutes, and then the suspensions were centrifuged at 1000×g for 15 minutes at 4° C. (Beckman Avanti J-HC: rotor JS-4.2). The supernatant (S1) was transferred in a 21 Schott flask and the pellet (P1) was resuspended with Mannitol Buffer up to 175 ml. The resuspended pellet was transferred into a 250 ml Corning centrifugal beaker and centrifuged at 1500 ×g for 10 minutes at 4° C. (Beckman Avanti J-HC: rotor JS-4.2). The supernatant (S1) was then transferred in the 21 Schott flask and the pellet was discarded. The supernatants (S1) were centrifuged in 500ml Beckman polypropylene centrifugal beaker at 15 000×g for 30 minutes at 4° C. (Beckman Avanti J-20 XP; rotor JLA-10.500). The pellet (P2) was resuspended with Mannitol Buffer 1:1 and frozen at −80° C. The supernatant (S2) was centrifuged in 100 ml Beckman polypropylene centrifugal tubes at 48000×g for 50 minutes at 4 °C (Beckman Avanti J-20 XP: rotor JA-18). The supernatant (S3) was discarded and the pellet (P3) was resuspended with 1:1 Mannitol Buffer. The P2 and P3 protein concentration was determined with the BIORAD Standard assay method with bovine serum albumin as standard and measured on the NANO-Drop 1000. The membrane suspension was aliquots (500μl per tube) and stored at −80° C. until required.
# (§3) Membrane homogenates were resuspended and polytronised (Polytron PT1200E Kinematica AG) in Potassium Phosphate 10 mM, KCl 100 mM binding buffer at pH 7.4 to a final assay concentration determined with a previous experiment.
# (§4) Radioligand binding assays were carried out in a volume of 200 μL (96-well plates) which contained 100 μL of cell membranes. [^3H]RO7239181 at a concentration of 1.5 nM (α5β2γ1) or 20-30 nM (α1β2γ1, α2β2γ1) and the test compound in the range of [0.3-10000]33 10^−9 M. Nonspecific binding was defined by 10×10^6 (α5β2γ1) and 30×10^6 M RO7239181 and typically represented less than 5% (α5β2γ1) and less than 20% (α1β2γ1, α2β2γ1) of the total binding. Assays were incubated to equilibrium for 1 hour at 4° C. and then, membranes were filtered onto unifilter (96-well white microplate with bonded GF/C filters preincubated 20-50 minutes in 0.3% Polyethylenimine) with a Filtermate 196 harvester (Packard BioScience) and washed 4 times with cold Potassium Phosphate 10 mM pH 7.4. KCl 100 mM binding buffer. After anhydrousing, filter-retained radioactivity was detected by liquid scintillation counting. Ki values were calculated using Excel-Fit (Microsoft) and are the means of two determinations.
# Representative test results, obtained by the above described assay measuring binding affinity to HEK293 cells expressing human (h) receptors, are shown in the Table 1.
# [2] = target: human GABAA α2β2γ1 receptor (Homo sapiens (Human), UniProt P47869+Q8N1C3); test: as above
# Description: as §1
# The affinity of compounds at GABAA γ1 subunit-containing receptors was measured by competition for [^3H]RO7239181 (67.3 Ci/mmol: Roche) binding to membranes from HEK293F cells (ThermoFisher R79007) expressing human (transiently transfected) receptors of composition α5β2γ1, α2β2γ1, α1β2γ1.
# as §2, §3
# as §4, with “[^3H]RO7239181 at a concentration of 1.5 nM (α5β2γ1) or 20-30 nM (α1β2γ1, α2β2γ1) and the test compound in the range of [0.3-10000]33 10^−9 M. Nonspecific binding was defined by 10×10^6 (α5β2γ1) and 30×10^6 M RO7239181 and typically represented less than 5% (α5β2γ1) and less than 20% (α1β2γ1, α2β2γ1) of the total binding.” left out
# [3] = read-out: Ki h-GABAA α2β2γ1, membranes from HEK293F cells, [3H]RO7239181 20-30 nM, mean of two determinations
Compound,Ki [1],Ki [2],"Ki [2, 3]"
"Cc1nnc2n1-c1sc3c(c1C(c1c(F)cccc1Cl)=NC2)C[C@@H](C#N)C3 [Example 1, (13R)-9-(2-chloro-6-fluoro-phenyl)-3-methyl-16-thia-2,4,5,8-tetrazatetracyclo [8.6.0.02,6.011,15]hexadeca-1(10),3,5,8,11(15)-pentaene-13-carbonitrile]",8.8 nM,25.4 nM,25.4 nM
"Cc1nnc2n1-c1sc3c(c1C(c1c(F)cccc1F)=NC2)C[C@@H](C#N)C3 [Example 2, (13R)-9-(2,6-difluorophenyl)-3-methyl-16-thia-2,4,5,8-tetrazatetracyclo [8.6.0.02,6.011,15]hexadeca-1(10),3,5,8,11(15)-pentaene-13-carbonitrile]",16.3 nM,42.7 nM,42.7 nM
"Cc1nnc2n1-c1sc3c(c1C(c1c(F)cccc1F)=NC2)C[C@@H](C(F)F)C3 [Example 3, (13R)-13-(difluoromethyl)-9-(2,6-difluorophenyl)-3-methyl-16-thia-2,4,5,8-tetrazatetracyclo [8.6.0.02,6.011,15]hexadeca-1(10),3,5,8,11(15)-pentaene]",1.8 nM,2.9 nM,2.9 nM
"Cc1nnc2n1-c1sc3c(c1C(c1c(F)cccc1Cl)=NC2)C[C@@H](C(F)F)C3 [Example 4, (13R)-9-(2-chloro-6-fluoro-phenyl)-13-(difluoromethyl)-3-methyl-16-thia-2,4,5,8-tetrazatetracyclo [8.6.0.02,6.011,15]hexadeca-1(10),3,5,8,11(15)-pentaene]",1.2 nM,4.6 nM,4.6 nM
"Cc1nnc2n1-c1sc3c(c1C(c1c(F)cccc1F)=N[C@H]2C)C[C@@H](C(F)F)C3 [Example 5, (7S,13R)-13-(difluoromethyl)-9-(2,6-difluorophenyl)-3,7-dimethyl-16-thia-2,4,5,8-tetrazatetracyclo [8.6.0.02,6.011,15]hexadeca-1(10),3,5,8,11(15)-pentaene]",1.2 nM,3.4 nM,3.4 nM
"Fc1cccc(Cl)c1C1=NCc2nnc(C3CC3)n2-c2sc3c(c21)C[C@@H](C(F)F)C3 [Example 6, (13R)-9-(2-chloro-6-fluoro-phenyl)-3-cyclopropyl-13-(difluoromethyl)-16-thia-2,4,5,8-tetrazatetracyclo [8.6.0.02,6.011,15]hexadeca-1(10),3,5,8,11(15)-pentaene]",3.4 nM,6.6 nM,6.6 nM
"Fc1cccc(F)c1C1=NCc2nnc(C3CC3)n2-c2sc3c(c21)C[C@@H](C(F)F)C3 [Example 7, (13R)-3-cyclopropyl-13-(difluoromethyl)-9-(2,6-difluorophenyl)-16-thia-2,4,5,8-tetrazatetracyclo [8.6.0.02,6.011,15]hexadeca-1(10),3,5,8,11(15)-pentaene]",2.1 nM,6.4 nM,6.4 nM
"C[C@@H]1N=C(c2c(F)cccc2F)c2c(sc3c2C[C@@H](C(F)F)C3)-n2c(C3CC3)nnc21 [Example 8, (7S,13R)-3-cyclopropyl-13-(difluoromethyl)-9-(2,6-difluorophenyl)-7-methyl-16-thia-2,4,5,8-tetrazatetracyclo [8.6.0.02,6.011,15]hexadeca-1(10),3,5,8,11(15)-pentaene]",1.9 nM,4.6 nM,4.6 nM
"Cc1nnc2n1-c1sc3c(c1C(c1c(F)cccc1Cl)=N[C@H]2C)C[C@@H](C(F)F)C3 [Example 9, (7S,13R)-9-(2-chloro-6-fluoro-phenyl)-13-(difluoromethyl)-3,7-dimethyl-16-thia-2,4,5,8-tetrazatetracyclo [8.6.0.02,6.011,15]hexadeca-1(10),3,5,8,11(15)-pentaene]",1.6 nM,3.6 nM,3.6 nM
"Fc1cccc(F)c1C1=NCc2nnc(-c3cccnn3)n2-c2sc3c(c21)C[C@@H](C(F)F)C3 [Example 10, (13R)-13-(difluoromethyl)-9-(2,6-difluorophenyl)-3-pyridazin-3-yl-16-thia-2,4,5,8-tetrazatetracyclo [8.6.0.02,6.011,15]hexadeca-1(10),3,5,8,11(15)-pentaene]",3 nM,3 nM,3 nM
"C[C@@H]1N=C(c2c(F)cccc2Cl)c2c(sc3c2C[C@@H](C(F)F)C3)-n2c(C3CC3)nnc21 [Example 11, (7S,13R)-9-(2-chloro-6-fluoro-phenyl)-3-cyclopropyl-13-(difluoromethyl)-7-methyl-16-thia-2,4,5,8-tetrazatetracyclo [8.6.0.02,6.011,15]hexadeca-1(10),3,5,8,11(15)-pentaene]",3.4 nM,10.3 nM,10.3 nM
"C[C@@H]1N=C(c2c(F)cccc2Cl)c2c(sc3c2C[C@@H](C(F)F)C3)-n2c(-c3cccnn3)nnc21 [Example 12, (7S,13R)-9-(2-chloro-6-fluoro-phenyl)-13-(difluoromethyl)-7-methyl-3-pyridazin-3-yl-16-thia-2,4,5,8-tetrazatetracyclo [8.6.0.02,6.011,15]hexadeca-1(10),3,5,8,11(15)-pentaene]",3.7 nM,13.4 nM,13.4 nM
"Cc1nnc2n1-c1sc3c(c1C(c1c(F)cccc1F)=N[C@H]2C)C[C@@H](C(F)(F)F)C3 [Example 13, (7S,13R)-9-(2,6-difluorophenyl)-3,7-dimethyl-13-(trifluoromethyl)-16-thia-2,4,5,8-tetrazatetracyclo [8.6.0.02,6.011,15]hexadeca-1(10),3,5,8,11(15)-pentaene]",5.9 nM,16.2 nM,16.2 nM
"Cc1nnc2n1-c1sc3c(c1C(c1c(F)cccc1F)=NC2)C[C@@H](C)C3 [Example 14, (13R)-9-(2,6-difluorophenyl)-3,13-dimethyl-16-thia-2,4,5,8-tetrazatetracyclo [8.6.0.02,6.011,15]hexadeca-1(10),3,5,8,11(15)-pentaene]",1.6 nM,2.8 nM,2.8 nM
"Cc1nnc2n1-c1sc3c(c1C(c1c(F)cccc1F)=N[C@H]2C)C[C@@H](C)C3 [Example 15, (7S,13R)-9-(2,6-difluorophenyl)-3,7,13-trimethyl-16-thia-2,4,5,8-tetrazatetracyclo [8.6.0.02,6.011,15]hexadeca-1(10),3,5,8,11(15)-pentaene]",1.4 nM,6.3 nM,6.3 nM
"Cc1nc2n(n1)-c1sc3c(c1C(c1c(F)cccc1F)=N[C@H]2C)C[C@@H](C(F)F)C3 [Example 16, (7S,13R)-13-(difluoromethyl)-9-(2,6-difluorophenyl)-4,7-dimethyl-16-thia-2,3,5,8-tetrazatetracyclo [8.6.0.02,6.011,15]hexadeca-1(10),3,5,8,11(15)-pentaene]",1 nM,2.3 nM,2.3 nM
